Assays:
Test in all cases: greenhouse test, pre-emergence treatment
LOLMU = assay type: in vivo, Lolium multiflorum
Source text: (§1) The culture containers used were plastic pots containing loamy sand with approximately 3.0% of humus as substrate. The seeds of the test plants were sown separately for each species.
(§2) For the pre-emergence treatment, the active compounds, suspended or emulsified in water, were applied directly after sowing by means of finely distributing nozzles. The containers were irrigated gently to promote germination and growth and subsequently covered with transparent plastic hoods until the plants had rooted. This cover caused uniform germination of the test plants unless this was adversely affected by the active compounds.
(§3) Depending on the species, the plants were kept at 10-25° C. and 20-35° C., respectively. The test period extended over 2 to 4 weeks. During this time, the plants were tended and their response to the individual treatments was evaluated.
(§4) Evaluation was carried out using a scale from 0 to 100. 100 means no emergence of the plants, or complete destruction of at least the above-ground parts, and 0 means no damage or normal course of growth. Good herbicidal activity is given at values of at least 70, and very good herbicidal activity is given at values of at least 85.
(§5) The respective stated components A and B, and if appropriate, C were formulated as a 5% by weight or 10% by weight strength emulsion concentrate or a commercially available formulation of component B was used and, with addition of the amount of solvent system, introduced into the spray liquor used for applying the active compound. In the examples, the solvent used was water.
(§6) The test period extended over 20 or 21 days. During this time, the plants were tended, and their reactions to the treatment with active compound was monitored.
(§7) What was evaluated was the damage by the chemical compositions using a scale of from 0 to 100%, in comparison to the untreated control plants. 0 means no damage, and 100 means complete destruction of the plants.
(§8) In the examples below, using the method of S. R. Colby (1967) “Calculating synergistic and antagonistic responses of herbicide combinations”, Weeds 15, p. 22 ff., the value E, which is expected if the activity of the individual active compounds is only additive, was calculated.
(§9) where X=percent activity using active compound A at an application rate a; Y=percent activity using active compound B at an application rate b; E=expected activity (in %) by A+B at application rates a+b.
(§10) If the value found in experiments is higher than the value E calculated according to Colby, a synergistic effect is present.

PHACA = assay type: in vivo, Phalaris canariensis
Source text: as §1, §2, §3, §4, §5, §6, §7, §8, §9, §10

ECHCG = assay type: in vivo, Echinochloa crus-galli; details: Use Example 2
Source text: as §1, §2, §3, §4, §5, §6, §7, §8, §9, §10

MATIN = assay type: in vivo, Matricaria inodora; details: Use Example 2
Source text: as §1, §2, §3, §4, §5, §6, §7, §8, §9, §10

STEME = assay type: in vivo, Stellaria media; details: Use Example 2
Source text: as §1, §2, §3, §4, §5, §6, §7, §8, §9, §10

ALOMY = assay type: in vivo, Alopecurus myosuroides
Source text: as §1, §2, §3, §4, §5, §6, §7, §8, §9, §10

PANDI = assay type: in vivo, Panicum dichotomiflorum; details: 62.5 g/ha a.s., Use Example 3
Source text: as §1, §2, §3
as §4, with “85. […]” for “85.”
as §6
What was evaluated was the damage by the chemical compositions using a scale of from 0 to 100%, in comparison to the untreated control plants. […]
In the examples below, using the method of S. R. Colby (1967) “Calculating synergistic and antagonistic responses of herbicide combinations”, Weeds 15, p. 22 ff., the value E, which is expected if the activity of the individual active compounds is only additive, was calculated. […]
as §10

CCHEC = assay type: in vivo, Cenchrus echinatus
Source text: as §1, §2, §3, §4, §5, §6, §7, §8, §9, §10

BRAPL = assay type: in vivo, Brachiaria plantaginea
Source text: as §1, §2, §3, §4, §5, §6, §7, §8, §9, §10

CN1C(=O)C(C)(Cc2ccccc2)N(C)C(=O)C1=Cc1ccccc1C#N (stereo not drawn) [Example 20, 2-[5-Benzyl-1,4,5-trimethyl-3,6-dioxopiperazin-2-ylidenemethyl]benzo-nitrile]
Herbicidal action in % after 20 days against LOLMU (LOLMU; 125 g/ha a.s., Use Example 10): 0%
Herbicidal action in % after 21 days against LOLMU (LOLMU; 125 g/ha a.s., Use Example 11): 0%
Herbicidal action in % after 20 days against LOLMU (LOLMU; 125 g/ha a.s., Use Example 13): 0%
Herbicidal action in % after 20 days against LOLMU (LOLMU; 250 g/ha a.s., Use Example 10): 45%
Herbicidal action in % after 20 days against LOLMU (LOLMU; 250 g/ha a.s., Use Example 13): 45%
Herbicidal action in % after 20 days against LOLMU (LOLMU; 500 g/ha a.s., Use Example 1): 70%
Herbicidal action in % after 20 days against PHACA (PHACA; 250 g/ha a.s., Use Example 4): 80%
Herbicidal action in % after 20 days against PHACA (PHACA; 500 g/ha a.s., Use Example 1): 80%
Herbicidal action in % after 20 days against ECHCG (ECHCG; 62.5 g/ha a.s.): 70%
Herbicidal action in % after 20 days against ECHCG (ECHCG; 125 g/ha a.s.): 95%
Herbicidal action in % after 20 days against ECHCG (ECHCG; 250 g/ha a.s.): 100%
Herbicidal action in % after 20 days against MATIN (MATIN; 62.5 g/ha a.s.): 0%
Herbicidal action in % after 20 days against MATIN (MATIN; 125 g/ha a.s.): 30%
Herbicidal action in % after 20 days against MATIN (MATIN; 250 g/ha a.s.): 90%
Herbicidal action in % after 20 days against STEME (STEME; 62.5 g/ha a.s.): 0%
Herbicidal action in % after 20 days against STEME (STEME; 125 g/ha a.s.): 20%
Herbicidal action in % after 20 days against STEME (STEME; 250 g/ha a.s.): 50%
Herbicidal action in % after 20 days against ALOMY (ALOMY; 62.5 g/ha a.s., Use Example 2): 45%
Herbicidal action in % after 20 days against ALOMY (ALOMY; 125 g/ha a.s., Use Example 2): 55%
Herbicidal action in % after 20 days against ALOMY (ALOMY; 125 g/ha a.s., Use Example 7): 40%
Herbicidal action in % after 20 days against ALOMY (ALOMY; 125 g/ha a.s., Use Example 10): 45%
Herbicidal action in % after 20 days against ALOMY (ALOMY; 125 g/ha a.s., Use Example 13): 45%
Herbicidal action in % after 20 days against ALOMY (ALOMY; 125 g/ha a.s., Use Example 15): 40%
Herbicidal action in % after 20 days against ALOMY (ALOMY; 250 g/ha a.s., Use Example 2): 85%
Herbicidal action in % after 20 days against ALOMY (ALOMY; 250 g/ha a.s., Use Example 4): 85%
Herbicidal action in % after 20 days against ALOMY (ALOMY; 250 g/ha a.s., Use Example 7): 90%
Herbicidal action in % after 20 days against ALOMY (ALOMY; 250 g/ha a.s., Use Example 10): 70%
Herbicidal action in % after 20 days against ALOMY (ALOMY; 250 g/ha a.s., Use Example 13): 70%
Herbicidal action in % after 20 days against ALOMY (ALOMY; 250 g/ha a.s., Use Example 15): 90%
Herbicidal action in % after 21 days against PANDI (PANDI): 95%
Herbicidal action in % after 21 days against CCHEC (CCHEC; 62.5 g/ha a.s., Use Example 3): 20%
Herbicidal action in % after 20 days against CCHEC (CCHEC; 250 g/ha a.s., Use Example 16): 90%
Herbicidal action in % after 21 days against BRAPL (BRAPL; 31.25 g/ha a.s., Use Example 8): 20%
Herbicidal action in % after 20 days against BRAPL (BRAPL; 125 g/ha a.s., Use Example 5): 70%
Herbicidal action in % after 21 days against BRAPL (BRAPL; 125 g/ha a.s., Use Example 9): 80%
Herbicidal action in % after 20 days against BRAPL (BRAPL; 125 g/ha a.s., Use Example 12): 55%
